In ChEMBL document CHEMBL4725287, “An in silico mechanistic insight into HDAC8 activation facilitates the discovery of new small-molecule activators” (Bioorg Med Chem, 2020):
pEC50: −log10 of the molar value.

Tests used:
[1] = biological target: T1, Histone deacetylase 8 (Homo sapiens) (UniProt Q9BY41); test: Substrate-dependent activation of HDAC8 (unknown origin) assessed as fold activation using FLUOR DE LYS as substrate at 20 uM incubated for 30 mins by fluorescence based assay relative to control; settings: filed as activator
T1 sequence (whole entry): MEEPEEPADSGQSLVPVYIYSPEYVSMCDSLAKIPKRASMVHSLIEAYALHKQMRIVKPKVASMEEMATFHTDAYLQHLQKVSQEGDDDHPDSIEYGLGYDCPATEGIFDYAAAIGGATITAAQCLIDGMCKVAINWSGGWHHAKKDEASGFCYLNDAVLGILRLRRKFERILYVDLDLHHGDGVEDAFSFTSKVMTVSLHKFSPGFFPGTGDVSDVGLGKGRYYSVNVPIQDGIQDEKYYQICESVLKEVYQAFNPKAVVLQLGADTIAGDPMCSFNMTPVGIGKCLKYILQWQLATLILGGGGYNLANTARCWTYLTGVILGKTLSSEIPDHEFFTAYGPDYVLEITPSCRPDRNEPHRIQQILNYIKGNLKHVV

Histone deacetylase 8 = biological target: T2, Histone deacetylase 8 (Homo sapiens, UniProt Q9BY41); test: Substrate-dependent activation of HDAC8 (unknown origin) using FLUOR DE LYS as substrate incubated for 30 mins by fluorescence based assay
T2 sequence (Q9BY41 whole entry): T1 sequence (whole entry)

SMILES	fold change (FC) [1]	pEC50 (Histone deacetylase 8)
Nc1ncccc1O	1.3	
O=C(O)c1cccnc1S	1.3	
Oc1ccccc1-c1nc2ccccc2s1	1.3	
Sc1nc2ccccc2o1	1.3	
Oc1cccc2cccnc12 [OXYQUINOLINE]	1.3	4.95
O=C(O)c1ccccc1S [THIOSALICYLIC ACID]	1.3	4.77
